pIC50: −log10 of the molar value.
Target: T1, human CCR6 (Homo sapiens, UniProt P51684)
T1 construct: expressed in transfected cells; host or cells: HEK-293
T1 sequence (P51684 1-374): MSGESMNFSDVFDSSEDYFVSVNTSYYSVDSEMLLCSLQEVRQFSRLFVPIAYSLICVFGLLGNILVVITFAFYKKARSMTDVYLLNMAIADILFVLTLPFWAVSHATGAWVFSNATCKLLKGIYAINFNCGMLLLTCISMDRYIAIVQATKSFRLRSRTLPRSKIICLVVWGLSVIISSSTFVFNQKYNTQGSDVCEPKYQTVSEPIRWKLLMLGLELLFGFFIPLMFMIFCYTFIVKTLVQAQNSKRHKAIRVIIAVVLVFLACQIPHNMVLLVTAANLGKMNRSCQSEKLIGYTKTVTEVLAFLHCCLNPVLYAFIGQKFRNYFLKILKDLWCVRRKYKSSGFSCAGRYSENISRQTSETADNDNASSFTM
Experiment: FLIPR assay (inhibition of CCL20-induced calcium signal)
Format: cell-based
Conditions: HEK-293 cells expressing human CCR6; mean values where determined several times; read-out: FLIPR IC50
Method in brief: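 Dye-loaded HEK-293 cells expressing human CCR6 were preincubated with compound for 30 min at room temperature in the dark, then challenged with 10 nM CCL20 (final). Fluorescence was tracked on FLIPR, and baseline-subtracted peak emission over base after agonist addition gave inhibition dose-response curves for IC50.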

Row | SMILES | pIC50
1 | CC(C)c1ccc([C@](O)(c2cncc(-c3noc(C4CCN(C(=O)C5COC5)CC4)n3)c2)C2(C)CN(C)C2)cc1 [Example 476] | 6.95
2 | COCC(=O)N1CCC(c2nc(-c3cncc([C@@](O)(c4ccc(C(C)C)cc4)C4(C)CN(C)C4)c3)no2)(C(C)C)CC1 [Example 477] | 7.47
3 | CC(C)c1ccc([C@](O)(c2cncc(-c3noc(C4CCC(=O)N(C)C4)n3)c2)C2(C)CN(C)C2)cc1 (stereo partly drawn) [Example 479, 5-(3-{5-[(R)-(1,3-Dimethyl-azetidin-3-yl)-hydroxy-(4-isopropyl-phenyl)-methyl]-pyridin-3-yl}-[1,2,4]oxadiazol-5-yl)-1-methyl-piperidin-2-one] | 6.95
4 | CC(C)c1ccc([C@](O)(c2cncc(-c3noc(C4(C)CCC(=O)NC4)n3)c2)C2(C)CN(C)C2)cc1 (some centres unmarked) [Example 480] | 6.89
5 | CC(C)c1ccc([C@](O)(c2cncc(-c3noc(C4CCC(=O)NC4)n3)c2)C2(C)CN(C)C2)cc1 (some centres unmarked) [Example 481] | 6.74
6 | CC(C)c1ccc([C@](O)(c2cncc(-c3noc(C4(C)CNC(=O)C4)n3)c2)C2(C)CN(C)C2)cc1 (some centres unmarked) [Example 482] | 7.03
7 | CC(C)c1ccc([C@](O)(c2cncc(-c3noc(CN4C(=O)CC(C)(C)C4=O)n3)c2)C2(C)CN(C)C2)cc1 [Example 483] | 7.14
8 | CC(C)c1ccc([C@](O)(c2cncc(-c3noc(CN4CC(=O)NC4=O)n3)c2)C2(C)CN(C)C2)cc1 [Example 484] | 6.23
9 | CC(C)c1ccc([C@](O)(c2cncc(-c3noc(CN4CCCC4=O)n3)c2)C2(C)CN(C)C2)cc1 [Example 485] | 6.59
10 | CC(C)c1ccc([C@](O)(c2cncc(-c3noc(CN4C(=O)CNC4=O)n3)c2)C2(C)CN(C)C2)cc1 [Example 486] | 6.54
11 | CC(C)c1ccc([C@](O)(c2cncc(-c3noc(CN4C(=O)CN(C)C4=O)n3)c2)C2(C)CN(C)C2)cc1 [Example 487] | 6.61
12 | CC(C)c1ccc([C@](O)(c2cncc(-c3noc(CN4CC(=O)N(C)C4=O)n3)c2)C2(C)CN(C)C2)cc1 [Example 488] | 6.42
13 | CC(C)c1ccc([C@](O)(c2cncc(-c3noc(CN4CCOC4=O)n3)c2)C2(C)CN(C)C2)cc1 [Example 489] | 6.87
14 | CC(C)c1ccc([C@](O)(c2cncc(-c3noc(CN4CCN(C5CC5)C4=O)n3)c2)C2(C)CN(C)C2)cc1 [Example 490] | 6.84
15 | CC(C)c1ccc([C@](O)(c2cncc(-c3noc(CN4C(=O)CCC4=O)n3)c2)C2(C)CN(C)C2)cc1 [Example 491] | 6.76
16 | CC(C)c1ccc([C@](O)(c2cncc(-c3noc(CN4CCN(C)C4=O)n3)c2)C2(C)CN(C)C2)cc1 [Example 492] | 6.57
17 | CC(C)c1ccc([C@](O)(c2cncc(-c3noc(CN4CCNC4=O)n3)c2)C2(C)CN(C)C2)cc1 [Example 493] | 6.73
18 | CC(C)c1ccc([C@](O)(c2cncc(-c3noc(C(C)(O)CO)n3)c2)C2(C)CN(C)C2)cc1 (some centres unmarked) [Example 494] | 6.62
19 | CC(C)c1ccc([C@](O)(c2cncc(-c3noc(-c4cccnc4)n3)c2)C2(C)CN(C)C2)cc1 [Example 495] | 7.68
20 | CC(=O)N1CCC(Cc2nc(-c3cncc([C@@](O)(c4ccc(C(C)C)cc4)C4(C)CN(C)C4)c3)no2)CC1 [Example 496] | 7.16
21 | CC(C)c1ccc([C@](O)(c2cncc(-c3noc(CC#N)n3)c2)C2(C)CN(C)C2)cc1 [Example 497] | 7.13
22 | CC(=O)N1CCC(O)(c2nc(-c3cncc([C@@](O)(c4ccc(C(C)C)cc4)C4(C)CN(C)C4)c3)no2)CC1 [Example 498, 1-[4-(3-{5-[(R)-(1,3-Dimethyl-azetidin-3-yl)-hydroxy-(4-isopropyl-phenyl)-methyl]-pyridin-3-yl}-[1,2,4]oxadiazol-5-yl)-4-hydroxy-piperidin-1-yl]-ethanone] | 6.63
23 | CC(C)c1ccc([C@](O)(c2cncc(-c3noc(CCC#N)n3)c2)C2(C)CN(C)C2)cc1 [Example 499, 3-(3-{5-[(R)-(1,3-Dimethyl-azetidin-3-yl)-hydroxy-(4-isopropyl-phenyl)-methyl]-pyridin-3-yl}-[1,2,4]oxadiazol-5-yl)-propionitrile] | 7.27
